Data published in patent publication US4649145A, “Thiazole derivatives” (Hoechst UK Limited, priority 1982, dated 1987).

These molecules were tested on gastric acid secretion in the perfused rat stomach (assay: antisecretory activity in the perfused rat stomach (inhibition of histamine- or pentagastrin-stimulated gastric acid secretion)). Conditions: Rattus norvegicus, iv, read-out: ID50 (amount of compound required to inhibit the stimulated secretion by 50%).
Type: in vivo
Procedure: Compounds of this invention were tested for antisecretory activity in the perfused rat stomach. The method of Ghosh and Schild, Brit. […] J. […] After the secretion plateau was reached, the test compound was administered i.v. and the amount of compound required to inhibit the stimulated secretion by 50% was determined.

SMILES	ED50
CN/C(=N/CCSCc1nc[nH]c1C)NC#N [Cimetidine, N--cyanoN'--methylN"--{2[(4methyl-5-imidazolyl)methyl-thio]ethyl}guanidin, reference compound]	2.5 mg/kg

Same assay, conditions: iv; perfused rat stomach; i.v.; acid secretion stimulated by infusing either histamine or pentagastrin at a constant rate; read-out: ID50 (amount of compound required to inhibit the stimulated secretion by 50%)

SMILES	ED50
NC(N)=Nc1nc(CSCCNC2=NC(=O)C(=Cc3cccc(Oc4ccccc4)c3)N2)cs1 [Compound 96, 2[2-[(2-Guanidino-4-thiazolyl)]methylthio]ethylamino-5-(3-phenoxybenzylidenyl)-imidazolidin-4-one]	10 mg/kg
CC1(C)NC(NCCSCc2csc(N=C(N)N)n2)=NC1=O [Compound 78]	1 mg/kg
CCCCCC=C1NC(NCCSCc2csc(N=C(N)N)n2)=NC1=O [Compound 89]	0.15 mg/kg
CC(C)=C1NC(NCCSCc2csc(N=C(N)N)n2)=NC1=O [Compound 91]	0.18 mg/kg
CCCCCCC1NC(NCCSCc2csc(N=C(N)N)n2)=NC1=O (centres unmarked) [Compound 72]	0.16 mg/kg
CCC(C)C1NC(NCCSCc2csc(N=C(N)N)n2)=NC1=O (centres unmarked) [Compound 70]	1.5 mg/kg
NC(N)=Nc1nc(CSCCNC2=NC(=O)C(=Cc3ccco3)N2)cs1 [Compound 85]	0.2 mg/kg
NC(N)=Nc1nc(CSCCNC2=NC(=O)C(c3ccccc3)(c3ccccc3)N2)cs1 [Compound 77]	0.5 mg/kg
NC(N)=Nc1nc(CSCCNC2=NC(=O)C(=Cc3cccnc3)N2)cs1 [Compound 97]	0.5 mg/kg
NC(N)=Nc1nc(CSCCNC2=NC(=O)C(Cc3ccccc3)N2)cs1 (centres unmarked) [Compound 74]	2.5 mg/kg
NC(N)=Nc1nc(CSCCNC2=NC(=O)C(=C3CCCCC3)N2)cs1 [Compound 90]	0.18 mg/kg
NC(N)=Nc1nc(CSCCNC2=NC(=O)C(=Cc3ccc(C(F)(F)F)cc3)N2)cs1 [Compound 83]	3.5 mg/kg
CCCCC=C1NC(NCCSCc2csc(N=C(N)N)n2)=NC1=O [Compound 94]	0.06 mg/kg
COc1ccc(C=C2NC(NCCSCc3csc(N=C(N)N)n3)=NC2=O)cc1 [Compound 81]	1.2 mg/kg
NC(N)=Nc1nc(CSCCNC2=NC(=O)C(=CC=Cc3ccco3)N2)cs1 [Compound 86]	0.02 mg/kg
NC(N)=Nc1nc(CSCCNC2=NC(=O)C(=Cc3ccccc3)N2)cs1 [Compound 80]	0.5 mg/kg
CCCC=C1NC(NCCSCc2csc(N=C(N)N)n2)=NC1=O [Compound 88]	0.1 mg/kg
CC=C1NC(NCCSCc2csc(N=C(N)N)n2)=NC1=O [Compound 87]	0.1 mg/kg
CC(C)C=C1NC(NCCSCc2csc(N=C(N)N)n2)=NC1=O [Compound 92]	0.07 mg/kg
CC(C)CC1NC(NCCSCc2csc(N=C(N)N)n2)=NC1=O (centres unmarked) [Compound 71]	0.2 mg/kg
CCC(C)C=C1NC(NCCSCc2csc(N=C(N)N)n2)=NC1=O (centres unmarked) [Compound 93]	0.07 mg/kg
NC(N)=Nc1nc(CSCCNC2=NC(=O)C(=Cc3ccc([N+](=O)[O-])cc3)N2)cs1 [Compound 82]	0.6 mg/kg
CCCCC1NC(NCCSCc2csc(N=C(N)N)n2)=NC1=O (centres unmarked) [Compound 69]	0.15 mg/kg
NC(N)=Nc1nc(CSCCNC2=NC(=O)CN2)cs1 [Compound 64]	0.45 mg/kg
CC1NC(NCCSCc2csc(N=C(N)N)n2)=NC1=O (centres unmarked) [Compound 65]	0.7 mg/kg
